In the assay the target is T1, human GalR3 receptor (Homo sapiens, UniProt O60755).
T1 construct: expressed in transfected cells; host or cells: mouse fibroblast LM(tk-) cells, stably transfected; membranes
T1 sequence (O60755 1-368): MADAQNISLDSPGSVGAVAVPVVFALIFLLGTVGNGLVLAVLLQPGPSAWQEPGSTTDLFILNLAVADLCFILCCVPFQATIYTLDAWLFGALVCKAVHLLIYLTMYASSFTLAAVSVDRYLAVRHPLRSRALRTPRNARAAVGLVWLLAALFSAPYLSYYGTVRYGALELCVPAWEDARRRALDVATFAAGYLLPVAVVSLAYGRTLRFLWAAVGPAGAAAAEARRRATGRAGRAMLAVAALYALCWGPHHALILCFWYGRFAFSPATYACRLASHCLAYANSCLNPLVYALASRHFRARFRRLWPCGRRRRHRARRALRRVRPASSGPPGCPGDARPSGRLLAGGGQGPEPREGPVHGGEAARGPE
Description: Radioligand binding assay at cloned human GalR3 receptor. The conditions noted are these: Binding Data; membranes from LM(tk-) cells stably transfected with the human GalR3 receptor. The procedure: LM(tk-) cells were stably transfected with the human GalR3 receptor. cDNAs for the human and rat GalR3 receptors were transfected with a G-418 resistant gene into the mouse fibroblast LM(tk-) cell line by a calcium phosphate transfection method (Cullen, 1987). Membranes were harvested from stably transfected LM(tk-) cells. Adherent cells were washed twice in ice-cold phosphate buffered saline (138 mM NaCl, 8.1 mM Na2HPO4, 2.5 mM KCl, 1.2 mM KH2PO4, 0.9 mM CaCl2, 0.5 mM MgCl2, pH 7.4) and lysed by sonication in ice-cold sonication buffer (20 mM Tris-HCl, 5 mM EDTA, pH 7.7). Large particles and debris were cleared by low speed centrifugation (200×g, 5 min, 4° C.). Membranes were collected from the supernatant fraction by centrifugation (32,000×g, 18 min, 4° C.), washed with ice-cold hypotonic buffer, and collected again by centrifugation (32,000×g, 18 min, 4° C.). The final membrane pellet was resuspended by sonication into a small volume of ice-cold binding buffer (˜1 ml for every 5 plates: 10 mM NaCl, 20 mM HEPES, 0.22 mM KH2PO4, 1.26 mM CaCl2, 0.81 mM MgSO4, pH 7.4). Protein concentration was measured by the Bradford method (Bradford, 1976) using Bio-Rad Reagent, with bovine serum albumin as a standard. Membranes were held on ice for up to one hour and used fresh, or flash frozen and stored in liquid nitrogen. Membranes were prepared similarly from CHO cells. The methods to obtain the cDNA of the receptors, express said receptors in heterologous systems, and carry out assays to determine binding affinity are described as follows. Binding assays were performed according to the following published method: human GALR3 (PCT International Publication No. WO 02/060392).

For orientation: Ki means the dissociation constant of the complex between target and ligand, obtained from inhibition or displacement. Low values mean a stronger hold on the target, high ones a looser hold on the target.

Molecules are shown by their SMILES.

In turn, `CN(C)c1cc(Nc2ccc(SC(F)(F)F)c(Cl)c2)nc(N2CCN(c3ccccc3F)CC2)n1` [Example 14, N^4-{3-CHLORO-4-[(TRIFLUOROMETHYL)SULFANYL]PHENYL}-2-[4-(2-FLUOROPHENYL)-1-PIPERAZINYL]-N^6,N^6-DIMETHYL-4,6-PYRIMIDINEDIAMINE] yielded a Ki of 158 nM. In other words, the sub-micromolar range.
For `CCn1ccc2ccc(Nc3cc(N(C)C)nc(N4CCN(c5ccccn5)CC4)n3)cc21` [Example 47, N^4-(1-ETHYL-1H-INDOL-6-YL)-N^6,N^6-DIMETHYL-2-[4-(2-PYRIDINYL)-1-PIPERAZINYL]-4,6-PYRIMIDINEDIAMINE] the value was 351 nM; for `CN(C)c1cc(Nc2cccc(OCc3ccccc3)c2)nc(N2CCN(c3ccccc3Cl)CC2)n1` [Example 25, N^4-[3-(BENZYLOXY)PHENYL]-2-[4-(2-CHLOROPHENYL)-1-PIPERAZINYL]-N^6,N^6-DIMETHYL-4,6-PYRIMIDINEDIAMINE], 16 nM; for `CN(C)c1cc(Nc2ccc(Cl)c(Cl)c2)nc(N2CCN(c3ccccc3F)CC2)n1` [Example 29, N^4-(3,4-DICHLOROPHENYL)-2-[4-(2-FLUOROPHENYL)-1-PIPERAZINYL]-N^6,N^6-DIMETHYL-4,6-PYRIMIDINEDIAMINE], 27 nM.
For `CCN(CC)c1cc(C)ccc1Nc1cc(N(C)C)nc(N2CCN(c3ccccn3)CC2)n1` [Example 44, N^4-[2-(DIETHYLAMINO)-4-METHYLPHENYL]-N^6,N^6-DIMETHYL-2-[4-(2-PYRIDINYL)-1-PIPERAZINYL]-4,6-PYRIMIDINEDIAMINE] the value was 314 nM; for `CN(C)c1cc(Nc2ccc3c(c2)CCC3)nc(N2CCN(c3ccccc3Cl)CC2)n1` [Example 4, 2-[4-(2-CHLOROPHENYL)-1-PIPERAZINYL]-N^4-(2,3-DIHYDRO-1H-INDEN-5-YL)-N^6,N^6-DIMETHYL-4,6-PYRIMIDINEDIAMINE], 54 nM; for `COc1cccc(Nc2cc(N(C)C)nc(N3CCN(c4ccccc4F)CC3)n2)c1` [Example 13, 2-[4-(2-FLUOROPHENYL)-1-PIPERAZINYL]-N^4-(3-METHOXYPHENYL)-N^6,N^6-DIMETHYL-4,6-PYRIMIDINEDIAMINE], 93 nM.
As for `Cc1ccc(Nc2cc(N(C)C)nc(N3CCN(c4ccc(Cl)cc4)CC3)n2)cc1C` [Example 23, 2-[4-(4-CHLOROPHENYL)-1-PIPERAZINYL]-N^4-(3,4-DIMETHYLPHENYL)-N^6,N^6-DIMETHYL-4,6-PYRIMIDINEDIAMINE], the figure is 129 nM; as for `CN(C)c1cc(Nc2ccc(C3CCCCC3)cc2)nc(N2CCN(c3ccc(Cl)cc3)CC2)n1` [Example 10, 2-[4-(4-CHLOROPHENYL)-1-PIPERAZINYL]-N^4-(4-CYCLOHEXYLPHENYL)-N^6,N^6-DIMETHYL-4,6-PYRIMIDINEDIAMINE], 47 nM.
In the case of `COc1cccc(Nc2cc(N(C)C)nc(N3CCN(c4ccccc4Cl)CC3)n2)c1` [Example 11, 2-[4-(2-CHLOROPHENYL)-1-PIPERAZINYL]-N^4-(3-METHOXYPHENYL)-N^6,N^6-DIMETHYL-4,6-PYRIMIDINEDIAMINE], the Ki amounted to 62 nM.
For `Cc1ccc(Nc2cc(N(C)C)nc(N3CCN(c4cccc(Cl)c4)CC3)n2)cc1` [Example 1, 2-[4-(3-CHLOROPHENYL)-1-PIPERAZINYL]-N^4,N^4-DIMETHYL-N^6-(4-METHYLPHENYL)-4,6-PYRIMIDINEDIAMINE] the value was 65 nM.
For `CC1CC(C)CN(c2nc(Nc3cccc(OCc4ccccc4)c3)cc(N(C)C)n2)C1` (centres unmarked) [Example 38, N^4-[3-(BENZYLOXY)PHENYL]-2-(3,5-DIMETHYL-1-PIPERIDINYL)-N^6,N^6-DIMETHYL-4,6-PYRIMIDINEDIAMINE] the value was 15 nM; for `Clc1ccc(Nc2cc(N3CCN(c4ccccn4)CC3)nc(N3CCN(c4ccccn4)CC3)n2)cc1Cl` [Example 43, N-(3,4-DICHLOROPHENYL)-2,6-BIS[4-(2-PYRIDINYL)-1-PIPERAZINYL]-4-PYRIMIDINAMINE], 60 nM.
Turning to `CN(C)c1cc(Nc2ccc(Cl)c(Cl)c2)nc(N2CCN(c3cccc(Cl)c3)CC2)n1` [Example 16, 2-[4-(3-CHLOROPHENYL)-1-PIPERAZINYL]-N^4-(3,4-DICHLOROPHENYL)-N^6,N^6-DIMETHYL-4,6-PYRIMIDINEDIAMINE], the Ki worked out at 34 nM.
In the case of `CN(C)c1cccc(Nc2cc(N(C)C)nc(N3CCN(c4ccccn4)CC3)n2)c1` [Example 28, N^4-[3-(DIMETHYLAMINO)PHENYL]-N^6,N^6-DIMETHYL-2-[4-(2-PYRIDINYL)-1-PIPERAZINYL]-4,6-PYRIMIDINEDIAMINE], the Ki amounted to 417 nM.
For `CN(C)c1cc(Nc2ccc(Cl)c(Cl)c2)nc(N2CCN(c3ccccc3Cl)CC2)n1` [Example 21, 2-[4-(2-CHLOROPHENYL)-1-PIPERAZINYL]-N^4-(3,4-DICHLOROPHENYL)-N^6,N^6-DIMETHYL-4,6-PYRIMIDINEDIAMINE] the value was 63 nM; for `O=C1CCN(c2cc(Nc3ccc(Cl)c(Cl)c3)nc(N3CCN(Cc4ccccc4)CC3)n2)CC1` [Example 53, 1-[2-(4-BENZYL-1-PIPERAZINYL)-6-(3,4-DICHLOROANILINO)-4-PYRIMIDINYL]-4-PIPERIDINONE], 36 nM.
For `CCNc1cccc(Nc2cc(N(C)C)nc(N3CCN(Cc4ccccc4)CC3)n2)c1` [Example 33, 2-(4-BENZYL-1-PIPERAZINYL)-N^4-[3-(ETHYLAMINO)PHENYL]N^6,N^6-DIMETHYL-4,6-PYRIMIDINEDIAMINE] the value was 942 nM; for `COc1cccc(Nc2cc(N(C)C)nc(N3CCN(c4cccc(Cl)c4)CC3)n2)c1` [Example 8, 2-[4-(3-CHLOROPHENYL)-1-PIPERAZINYL]-N^4-(3-METHOXYPHENYL)-N^6,N^6-DIMETHYL-4,6-PYRIMIDINEDIAMINE], 107 nM; for `CCNc1cc(Nc2cc(N(C)C)nc(N3CCN(Cc4ccccc4)CC3)n2)ccc1C` [Example 40, 2-(4-BENZYL-1-PIPERAZINYL)-N^4-[3-(ETHYLAMINO)-4-METHYLPHENYL]-N^6,N^6-DIMETHYL-4,6-PYRIMIDINEDIAMINE], 137 nM.
For `CN(C)c1cc(Nc2ccc3c(c2)CCC3)nc(N2CCN(c3ccc(Cl)cc3)CC2)n1` [Example 6, 2-[4-(4-CHLOROPHENYL)-1-PIPERAZINYL]-N^4-(2,3-DIHYDRO-1H-INDEN-5-YL)-N^6,N^6-DIMETHYL-4,6-PYRIMIDINEDIAMINE] the value was 52 nM; for `Cc1ccc(Nc2cc(N(C)C)nc(N3CCN(c4ccccc4Cl)CC3)n2)cc1C` [Example 17, 2-[4-(2-CHLOROPHENYL)-1-PIPERAZINYL]-N^4-(3,4-DIMETHYLPHENYL)-N^6,N^6-DIMETHYL-4,6-PYRIMIDINEDIAMINE], 57 nM; for `CN(C)c1cc(Nc2cccc(OCc3ccccc3)c2)nc(N2CCN(c3ncccn3)CC2)n1` [Example 41, N-[3-(BENZYLOXY)PHENYL]-N^6,N^6-DIMETHYL-2-[4-(2-PYRIMIDINYL)-1-PIPERAZINYL]-4,6-PYRIMIDINEDIAMINE], 14 nM.
Molecule `CN(C)c1cc(Nc2ccc(SC(F)(F)F)c(Cl)c2)nc(N2CCN(c3cccc(Cl)c3)CC2)n1` [Example 20, 2-[4-(3-CHLOROPHENYL)-1-PIPERAZINYL]-N^4-{3-CHLORO-4-[(TRIFLUOROMETHYL) SULFANYL]PHENYL}-N^6,N^6-DIMETHYL-4,6-PYRIMIDINEDIAMINE] returned a Ki of 318 nM. This Ki lies about 23-fold higher than the previous one.
The molecule `Cc1ccc(Nc2cc(N3CCN(c4ncccn4)CC3)nc(N3C[C@@H](C)O[C@@H](C)C3)n2)cc1` [Example 52, 2-(CIS-2,6-DIMETHYLMORPHOLINYL)-N-(4-METHYLPHENYL)-6-[4-(2-PYRIMIDINYL)-1-PIPERAZINYL]-4-PYRIMIDINAMINE] displayed a Ki of 117 nM.
Molecule `Cc1ccc(Nc2cc(N(C)C)nc(N3CCN(c4cccc(Cl)c4)CC3)n2)cc1C` [Example 32, 2-[4-(3-CHLOROPHENYL)-1-PIPERAZINYL]-N^4-(3,4-DIMETHYLPHENYL)-N^6,N^6-DIMETHYL-4,6-PYRIMIDINEDIAMINE] came in with an inhibition constant Ki of 97 nM.

Values taken from US6936607B2, “2,4,6-Triaminopyrimidines for the treatment of depression and/or anxiety” (H. Lunobeck A/S, priority 2002, dated 2005).
